Test results: US20260232767A1, “INTERLEUKIN-23 RECEPTOR ANTAGONIST PEPTIDES FOR USE IN THE TREATMENT OF PSORIASIS” (Janssen Pharmaceutica NV, priority 2023, published 2026)

Test system: subjects with moderate-to-severe plaque psoriasis
Experiment: Safety, adverse events, Example 2 through Week 56
Assay type: in vivo, human
Text: The LTE safety analysis was based on randomized participants in Example who entered the present long-term extension study and received at least one dose of study intervention (including a partial dose) during the study period.

[1] = 25 mg QD, LTE Safety analysis set
[2] = 50 mg QD, Week 16 through Week 56
[3] = 50 mg QD, LTE Safety analysis set

CC(=O)NCCCC[C@@H]1NC(=O)[C@H](Cc2c[nH]c3c(C)cccc23)NC(=O)[C@H]([C@@H](C)O)NC(=O)[C@H](CC(N)=O)NC(=O)[C@@H](NC(C)=O)C(C)(C)SSC(C)(C)[C@@H](C(=O)N[C@@H](Cc2ccc(OCCN)cc2)C(=O)N[C@@H](Cc2ccc3ccccc3c2)C(=O)NC2(C(=O)N[C@@H](CCC(=O)O)C(=O)N[C@@H](CC(N)=O)C(=O)N[C@@H](Cc3cccnc3)C(=O)N(C)CC(N)=O)CCOCC2)NC1=O [IL-23 receptor antagonist peptide, Ac-[Pen]*-N-T-[W(7-Me)]-[Lys(Ac)]-[Pen]*-Phe[4-(2-aminoethoxy)]-[2-Nal]-[THP]-E-N-[3-Pal]-Sarc-NH2 (*[Pen]-[Pen]* formdisulfidebond)]
Subjects with treatment-emergent serious AE: Neoplasms benign, malignant and unspecified (incl cysts and polyps) (25 mg QD, through Week 56): 0
Subjects with treatment-emergent serious AE: Nervous system disorders (25 mg QD, through Week 56): 0
Subjects with treatment-emergent serious AE: Non-cardiac chest pain (25 mg QD, through Week 56): 0
Subjects with treatment-emergent serious AE: Psychiatric disorders (25 mg QD, through Week 56): 0
Subjects with treatment-emergent serious AE: Respiratory, thoracic and mediastinal disorders (25 mg QD, through Week 56): 0
Subjects with treatment-emergent serious AE: Suicide attempt (25 mg QD, through Week 56): 0
Subjects with treatment-emergent serious AE: Tonsillar hypertrophy (25 mg QD, through Week 56): 0
Subjects with treatment-emergent serious AE: Uterine leiomyoma (25 mg QD, through Week 56): 0
Subjects with treatment-emergent serious AE: Ventricular dysfunction (25 mg QD, through Week 56): 0
Suicide attempt: number of subjects (25 mg QD, through Week 56): 0
Sunburn: number of subjects (25 mg QD, through Week 56): 0
Thrombocytopenia: % of subjects (25 mg QD, through Week 56): (2.3%)
Thrombocytopenia: number of subjects (25 mg QD, through Week 56): 1
Thrombocytosis: number of subjects (25 mg QD, through Week 56): 0
Tonsillar hypertrophy: number of subjects (25 mg QD, through Week 56): 0
Tooth fracture: number of subjects (25 mg QD, through Week 56): 0
Type 2 diabetes mellitus: number of subjects (25 mg QD, through Week 56): 0
Urinary tract disorder: number of subjects (25 mg QD, through Week 56): 0
Uterine leiomyoma: number of subjects (25 mg QD, through Week 56): 0
Vascular disorders: number of subjects (25 mg QD, through Week 56): 0
Ventricular dysfunction: number of subjects (25 mg QD, through Week 56): 0
Vertigo: % of subjects (25 mg QD, through Week 56): (2.3%)
Vertigo: number of subjects (25 mg QD, through Week 56): 1
Vitamin D deficiency: number of subjects (25 mg QD, through Week 56): 0
Subjects with 1 or more Serious Infections and infestations [1]: 0
Subjects with 1 or more Serious adverse events [1]: 0
Subjects with adverse event: Arthralgia [1]: 0
Subjects with adverse event: Hypertension [1]: 0
Subjects with adverse event: Influenza [1]: 0
Subjects with adverse event: Sinusitis [1]: 0
Subjects with adverse event: Vomiting [1]: 0
Subjects with serious adverse event: Cerebrovascular accident [1]: 0
Subjects with serious adverse event: Coronary artery disease [1]: 0
Subjects with serious adverse event: Diverticulitis [1]: 0
Subjects with serious adverse event: Foot deformity [1]: 0
Subjects with serious adverse event: Intervertebral disc protrusion [1]: 0
Subjects with serious adverse event: Ligament injury [1]: 0
Subjects with serious adverse event: Non-cardiac chest pain [1]: 0
Subjects with serious adverse event: Tonsillar hypertrophy [1]: 0
Subjects with serious adverse event: Uterine leiomyoma [1]: 0
Subjects with serious adverse event: Ventricular dysfunction [1]: 0
Subjects with 1 or more treatment-emergent serious adverse events (25 mg QD, Week 16-56): 0
Subjects with AE leading to discontinuation: Asthenia (25 mg QD, Week 16-56): 0
Subjects with AE leading to discontinuation: Chills (25 mg QD, Week 16-56): 0
Subjects with AE leading to discontinuation: Ear and labyrinth disorders (25 mg QD, Week 16-56): 0
Subjects with AE leading to discontinuation: Gastrointestinal disorders (25 mg QD, Week 16-56): 0
Subjects with AE leading to discontinuation: General disorders and administration site conditions (25 mg QD, Week 16-56): 0
Subjects with AE leading to discontinuation: Headache (25 mg QD, Week 16-56): 0
Subjects with AE leading to discontinuation: Insomnia (25 mg QD, Week 16-56): 0
Subjects with AE leading to discontinuation: Nervous system disorders (25 mg QD, Week 16-56): 0
Subjects with AE leading to discontinuation: Proctalgia (25 mg QD, Week 16-56): 0
Subjects with AE leading to discontinuation: Psoriasis (25 mg QD, Week 16-56): 0
Subjects with AE leading to discontinuation: Psychiatric disorders (25 mg QD, Week 16-56): 0
Subjects with AE leading to discontinuation: Skin and subcutaneous tissue disorders (25 mg QD, Week 16-56): 0
Subjects with AE leading to discontinuation: Vertigo (25 mg QD, Week 16-56): 0
Subjects with AE leading to discontinuation: Vomiting (25 mg QD, Week 16-56): 0
Subjects with COVID-19 associated AE of interest: SARS-CoV-2 test positive (25 mg QD, Week 16-56): 0
Subjects with treatment-emergent AE: Arthralgia (25 mg QD, Week 16-56): 0
Subjects with treatment-emergent AE: Hypertension (25 mg QD, Week 16-56): 0
Subjects with treatment-emergent AE: Influenza (25 mg QD, Week 16-56): 0
Subjects with treatment-emergent AE: Musculoskeletal and connective tissue disorders (25 mg QD, Week 16-56): 0
Subjects with treatment-emergent AE: Sinusitis (25 mg QD, Week 16-56): 0
Subjects with treatment-emergent AE: Vascular disorders (25 mg QD, Week 16-56): 0
Subjects with treatment-emergent AE: Vomiting (25 mg QD, Week 16-56): 0
Subjects with treatment-emergent serious AE: Cardiac disorders (25 mg QD, Week 16-56): 0
Subjects with treatment-emergent serious AE: Cerebrovascular accident (25 mg QD, Week 16-56): 0
Subjects with treatment-emergent serious AE: Coronary artery disease (25 mg QD, Week 16-56): 0
Subjects with treatment-emergent serious AE: Diverticulitis (25 mg QD, Week 16-56): 0
Subjects with treatment-emergent serious AE: Foot deformity (25 mg QD, Week 16-56): 0
Subjects with treatment-emergent serious AE: General disorders and administration site conditions (25 mg QD, Week 16-56): 0
Subjects with treatment-emergent serious AE: Infections and infestations (25 mg QD, Week 16-56): 0
Subjects with treatment-emergent serious AE: Injury, poisoning and procedural complications (25 mg QD, Week 16-56): 0
Subjects with treatment-emergent serious AE: Intervertebral disc protrusion (25 mg QD, Week 16-56): 0
Subjects with treatment-emergent serious AE: Ligament injury (25 mg QD, Week 16-56): 0
Subjects with treatment-emergent serious AE: Musculoskeletal and connective tissue disorders (25 mg QD, Week 16-56): 0
Subjects with treatment-emergent serious AE: Neoplasms benign, malignant and unspecified (incl cysts and polyps) (25 mg QD, Week 16-56): 0
Subjects with treatment-emergent serious AE: Nervous system disorders (25 mg QD, Week 16-56): 0
Subjects with treatment-emergent serious AE: Non-cardiac chest pain (25 mg QD, Week 16-56): 0
Subjects with treatment-emergent serious AE: Respiratory, thoracic and mediastinal disorders (25 mg QD, Week 16-56): 0
Subjects with treatment-emergent serious AE: Tonsillar hypertrophy (25 mg QD, Week 16-56): 0
Subjects with treatment-emergent serious AE: Uterine leiomyoma (25 mg QD, Week 16-56): 0
Subjects with treatment-emergent serious AE: Ventricular dysfunction (25 mg QD, Week 16-56): 0
Number of subjects with treatment-emergent AE: Cholelithiasis [2]: 0
Number of subjects with treatment-emergent AE: Ear and labyrinth disorders [2]: 0
Number of subjects with treatment-emergent AE: Endocrine disorders [2]: 0
Number of subjects with treatment-emergent AE: Eye disorders [2]: 0
Number of subjects with treatment-emergent AE: Eyelid skin dryness [2]: 0
Number of subjects with treatment-emergent AE: Goiter [2]: 0
Number of subjects with treatment-emergent AE: Hepatobiliary disorders [2]: 0
Number of subjects with treatment-emergent AE: Hypertransaminasemia [2]: 0
Number of subjects with treatment-emergent AE: Immune system disorders [2]: 1
Number of subjects with treatment-emergent AE: Insomnia [2]: 0
Number of subjects with treatment-emergent AE: Ocular cyst [2]: 0
Number of subjects with treatment-emergent AE: Psychiatric disorders [2]: 0
Number of subjects with treatment-emergent AE: Retinal vein occlusion [2]: 0
Number of subjects with treatment-emergent AE: Seasonal allergy [2]: 1
Number of subjects with treatment-emergent AE: Vertigo [2]: 0
Subjects with treatment-emergent AE: Immune system disorders (%) [2]: (2.6%)
Subjects with treatment-emergent AE: Seasonal allergy (%) [2]: (2.6%)
Subjects who discontinued study agent because of 1 or more adverse events [3]: 0
Subjects with 1 or more Serious Infections and infestations [3]: 0
Subjects with adverse event: Headache [3]: 0
Subjects with adverse event: Meniscus injury [3]: 0
Subjects with adverse event: Vomiting [3]: 0
Subjects with serious adverse event: Cerebrovascular accident [3]: 0
Subjects with serious adverse event: Diverticulitis [3]: 0
Subjects with serious adverse event: Intervertebral disc protrusion [3]: 0
Subjects with serious adverse event: Ligament injury [3]: 0
Subjects with serious adverse event: Tonsillar hypertrophy [3]: 0
Subjects with serious adverse event: Uterine leiomyoma [3]: 0
Subjects with serious adverse event: Ventricular dysfunction [3]: 0
Subjects with 1 or more treatment-emergent adverse events leading to discontinuation of study agent (50 mg QD, Week 16-56): 0
Subjects with AE leading to discontinuation: Alanine aminotransferase increased (50 mg QD, Week 16-56): 0
Subjects with AE leading to discontinuation: Aspartate aminotransferase increased (50 mg QD, Week 16-56): 0
Subjects with AE leading to discontinuation: Asthenia (50 mg QD, Week 16-56): 0
Subjects with AE leading to discontinuation: Chills (50 mg QD, Week 16-56): 0
Subjects with AE leading to discontinuation: Ear and labyrinth disorders (50 mg QD, Week 16-56): 0
Subjects with AE leading to discontinuation: Gamma-glutamyltransferase increased (50 mg QD, Week 16-56): 0
Subjects with AE leading to discontinuation: Gastrointestinal disorders (50 mg QD, Week 16-56): 0
Subjects with AE leading to discontinuation: General disorders and administration site conditions (50 mg QD, Week 16-56): 0
Subjects with AE leading to discontinuation: Headache (50 mg QD, Week 16-56): 0
